Experimental data from patent US12655083B2, “Solid forms of cannabidiol and uses thereof” (Artelo Biosciences, Inc., priority 2017, dated 2026).
Converted amounts (≈) assume the structure as drawn.

Assays:
[1] = Colour change of solutions from solubility estimates at room temperature; format: physicochemical; conditions: acetone, acetonitrile, DMA, DMF, p-dioxane, ethanol, IPOAc, MEK and methanol; after 1-3 days at room temperature
Experimental: Kinetic solubility estimates of cannabidiol were determined in various solvents to aid in designing screening experiments (Tables 1 and 2). Solubilities were estimated by adding measured aliquots of solvent to weighed amounts of cannabidiol at room temperature (RT). Samples were sonicated in between aliquot additions and dissolution was judged by visual inspection. Discoloration of the solutions produced from solubility estimates in acetone, acetonitrile, DMA, DMF, p-dioxane, ethanol, IPOAc, MEK and methanol were observed after 1-3 days at room temperature.

[2] = Approximate (kinetic) solubility estimate by aliquot addition with visual inspection; format: physicochemical; conditions: for solubility: thermodynamic from solid, ambient temperature
Experimental: Weighed samples were treated with aliquots of a solvent or solvent mixture at RT. The mixtures were sonicated between additions to facilitate dissolution. Complete dissolution of the test material was determined by visual inspection. Solubility was estimated based on the total solvent used to provide complete dissolution. The actual solubility may be greater than the value calculated because of the use of solvent aliquots that were too large or due to a slow rate of dissolution. […] If complete dissolution was achieved as a result of only one aliquot addition, the solubility is expressed as “greater than.”
Solubilities were estimated by adding measured aliquots of solvent to weighed amounts of cannabidiol at room temperature (RT). Samples were sonicated in between aliquot additions and dissolution was judged by visual inspection.

Compound: C=C(C)[C@@H]1CCC(C)=C[C@H]1c1c(O)cc(CCCCC)cc1O [Cannabidiol]
- Discoloration of solutions from solubility estimates [1]: Discoloration
- solubility ([2]; organic solvent or mixture, Acetone): 23 mg/mL (≈ 73.1 mM)
- solubility ([2]; organic solvent or mixture, Acetonitrile): > 50 mg/mL
- solubility ([2]; organic solvent or mixture, Cyclohexane): 15 mg/mL (≈ 47.7 mM)
- solubility ([2]; organic solvent or mixture, DCM): 19 mg/mL (≈ 60.4 mM)
- solubility ([2]; organic solvent or mixture, DMSO): 21 mg/mL (≈ 66.8 mM)
- solubility ([2]; organic solvent or mixture, Diethyl Ether): > 57 mg/mL
- solubility ([2]; organic solvent or mixture, EtOAc): > 46 mg/mL
- solubility ([2]; organic solvent or mixture, IPA): 14 mg/mL (≈ 44.5 mM)
- solubility ([2]; organic solvent or mixture, IPOAc): > 68 mg/mL
- solubility ([2]; organic solvent or mixture, MEK): > 55 mg/mL
- solubility ([2]; organic solvent or mixture, MIBK): > 59 mg/mL
- solubility ([2]; organic solvent or mixture, MTBE): 34 mg/mL (≈ 108 mM)
- solubility ([2]; organic solvent or mixture, MeOH): > 57 mg/mL
- solubility ([2]; organic solvent or mixture, NMP): 29 mg/mL (≈ 92.2 mM)
- solubility ([2]; organic solvent or mixture, Octanol): 13 mg/mL (≈ 41.3 mM)
- solubility ([2]; organic solvent or mixture, TFE): < 1 mg/mL
- solubility ([2]; organic solvent or mixture, THF): > 71 mg/mL
- solubility ([2]; organic solvent or mixture, p-dioxane): > 48 mg/mL
- solubility ([2]; Water): < 1 mg/mL
- Aqueous solubility estimate ([2]; water, aliquot addition method): <1 mg/mL
